Reference: patent publication US20120029187A1, “HALOALKYLSULFONANILIDE DERIVATIVE” (Nissan Chemical Industries, Ltd., priority 2009, published 2012)

What was measured:
Type in all cases: in vivo
[1] = system: common lambsquater; assay: Test Example 4: herbicidal effect in foliage treatment; conditions: dose 3.2 g/a, three weeks after the application
Text: (§1) Test on the Herbicidal Effect in Foliage Treatment
(§2) Sterilized diluvial soil was put in plastic boxes with a length of 21 cm, a width of 13 cm and a depth of 7 cm, and seeds of barnyardgrass, large crabgrass, giant foxtail, wild oat, blackgrass, velvetleaf, common ragweed, redroot pigweed, common lambsquater, posumbu knotweed, common chickweed, corn, soybean, rice, wheat and sugar beet were sown in spots and covered with an about 1.5 cm-thick soil layer. The boxes were placed in a greenhouse at 25 to 30° C. to grow the plants. After 14 days, emulsifiable concentrates containing compounds of the present invention formulated in accordance with Formulation Example 2 were uniformly applied to the foliage at predetermined doses through a small sprayer after diluted with water. Three weeks after the application, the herbicidal effects against various plants were determined on the same evaluation scale as in Test Example 1.
(§3) A: barnyardgrass, B: bulrush, C: ducksalad, D: large crabgrass, E: giant foxtail, F: wild oat, G: water foxtail, H: Italian ryegrass, I: velvetleaf, J: common ragweed, K: redroot pigweed, L: common lambsquater, M: posumbu knotweed, N: common chickweed, O: beadstraw, a: transplanted rice, b: corn, c: soybean, d: direct-seeded rice, e: wheat, f: sugar beet.
(§4) The doses (g/a) represents the amounts in g per 1 are (a) applied after adjustment of concentration adjustment.

[2] = system: Italian ryegrass; assay: as above; conditions: dose 3.2 g/a, three weeks after the application
Text: as §1, §2, §3, §4

[3] = system: barnyardgrass; assay: as above; conditions: dose 3.2 g/a, three weeks after the application
Text: as §1, §2, §3, §4

[4] = system: common chickweed; assay: as above; conditions: dose 3.2 g/a, three weeks after the application
Text: as §1, §2, §3, §4

[5] = system: redroot pigweed; assay: as above; conditions: dose 3.2 g/a, three weeks after the application
Text: as §1, §2, §3, §4

[6] = system: posumbu knotweed; assay: as above; conditions: dose 3.2 g/a, three weeks after the application
Text: as §1, §2, §3, §4

[7] = system: common ragweed; assay: as above; conditions: dose 3.2 g/a, three weeks after the application
Text: as §1, §2, §3, §4

[8] = system: water foxtail; assay: as above; conditions: dose 3.2 g/a, three weeks after the application
Text: as §1, §2, §3, §4

[9] = system: large crabgrass; assay: as above; conditions: dose 3.2 g/a, three weeks after the application
Text: as §1, §2, §3, §4

[10] = system: giant foxtail; assay: as above; conditions: dose 3.2 g/a, three weeks after the application
Text: as §1, §2, §3, §4

[11] = system: velvetleaf; assay: as above; conditions: dose 3.2 g/a, three weeks after the application
Text: as §1, §2, §3, §4

[12] = system: ducksalad; assay: Test Example 2: herbicidal effects during the vegetation period under submerged conditions; conditions: treatment during the vegetation period under submerged conditions; dose 2.52 g/a
Procedure: (§5) Test on the Herbicidal Effects on Weeds During the Vegetation Period Under Submerged Conditions
(§6) Alluvial soil was put in 1/30000-are styrol cups and admixed with water so that it was submerged at a depth of 4 cm. In each cup, seeds of barnyardgrass, bulrush and ducksalad were sown together, and the cups were placed in a greenhouse at 25 to 30° C. to grow the plants. When the barnyardgrass, bulrush and ducksalad reached the 1- or 2-leaf stage, emulsifiable concentrates containing compounds of the present invention formulated in accordance with Formulation Example 2 were applied to the water surfaces at predetermined doses after diluted with water. Three weeks after the application, the herbicidal effects against various plants were determined on the same evaluation scale as in Test Example 1.
as §3, §4

[13] = system: bulrush; assay: as above; conditions: treatment during the vegetation period under submerged conditions; dose 2.52 g/a
Procedure: as §5, §6, §3, §4

[14] = system: barnyardgrass; assay: as above; conditions: treatment during the vegetation period under submerged conditions; dose 2.52 g/a
Procedure: as §5, §6, §3, §4

[15] = system: ducksalad; assay: Test Example 1: herbicidal effects in preemergence treatment under submerged conditions; conditions: dose 2.52 g/a
Text: (§7) Test on the Herbicidal Effects in Preemergence Treatment on Weeds Under Submerged Conditions
(§8) Alluvial soil was put in 1/30000-are styrol cups and admixed with water so that it was submerged at a depth of 4 cm. In each cup, seeds of barnyardgrass, bulrush and ducksalad were sown together, and rice seedlings at the 2.5-leaf stage were transplanted. On the same day as the seeding, emulsifiable concentrates containing compounds of the present invention formulated in accordance with Formulation Example 2 were applied to the water surfaces at predetermined doses after diluted with water. The cups were placed in a greenhouse at 25 to 30° C. to grow the plants. Three weeks after the application, the herbicidal effects against various plants were determined on the following evaluation scale.
(§9) 5 mortality of 90% or above (nearly complete death)
(§10) 4 mortality of at least 70% and less than 90%
(§11) 3 mortality of at least 40% and less than 70%
(§12) 2 mortality of at least 20% and less than 40%
(§13) 1 mortality of at least 5% and less than 20%
(§14) 0 mortality of less than 5% (almost ineffective)
as §3, §4

[16] = system: bulrush; assay: as above; conditions: dose 2.52 g/a
Text: as §7, §8, §9, §10, §11, §12, §13, §14, §3, §4

[17] = system: barnyardgrass; assay: as above; conditions: dose 2.52 g/a
Text: as §7, §8, §9, §10, §11, §12, §13, §14, §3, §4

[18] = system: common lambsquater; assay: Test Example 3: herbicidal effects in soil treatment; conditions: dose 3.2 g/a
Text: (§15) Test on the Herbicidal Effects in Soil Treatment
as §2, with “chickweed” for “chickweed,”, “Emulsifiable” for “The boxes were placed in a greenhouse at 25 to 30° C. to grow the plants. After 14 days, emulsifiable”, “soil surfaces” for “foliage”, “dilute” for “diluted”
as §3, §4

[19] = system: Italian ryegrass; assay: as above; conditions: dose 3.2 g/a
Text: as §15
as §2, with “chickweed” for “chickweed,”, “Emulsifiable” for “The boxes were placed in a greenhouse at 25 to 30° C. to grow the plants. After 14 days, emulsifiable”, “soil surfaces” for “foliage”, “dilute” for “diluted”
as §3, §4

[20] = system: barnyardgrass; assay: as above; conditions: dose 3.2 g/a
Text: as §15
as §2, with “chickweed” for “chickweed,”, “Emulsifiable” for “The boxes were placed in a greenhouse at 25 to 30° C. to grow the plants. After 14 days, emulsifiable”, “soil surfaces” for “foliage”, “dilute” for “diluted”
as §3, §4

[21] = system: common chickweed; assay: as above; conditions: dose 3.2 g/a
Text: as §15
as §2, with “chickweed” for “chickweed,”, “Emulsifiable” for “The boxes were placed in a greenhouse at 25 to 30° C. to grow the plants. After 14 days, emulsifiable”, “soil surfaces” for “foliage”, “dilute” for “diluted”
as §3, §4

[22] = system: redroot pigweed; assay: as above; conditions: dose 3.2 g/a
Text: as §15
as §2, with “chickweed” for “chickweed,”, “Emulsifiable” for “The boxes were placed in a greenhouse at 25 to 30° C. to grow the plants. After 14 days, emulsifiable”, “soil surfaces” for “foliage”, “dilute” for “diluted”
as §3, §4

[23] = system: posumbu knotweed; assay: as above; conditions: dose 3.2 g/a
Text: as §15
as §2, with “chickweed” for “chickweed,”, “Emulsifiable” for “The boxes were placed in a greenhouse at 25 to 30° C. to grow the plants. After 14 days, emulsifiable”, “soil surfaces” for “foliage”, “dilute” for “diluted”
as §3, §4

[24] = system: common ragweed; assay: as above; conditions: dose 3.2 g/a
Text: as §15
as §2, with “chickweed” for “chickweed,”, “Emulsifiable” for “The boxes were placed in a greenhouse at 25 to 30° C. to grow the plants. After 14 days, emulsifiable”, “soil surfaces” for “foliage”, “dilute” for “diluted”
as §3, §4

[25] = system: water foxtail; assay: as above; conditions: dose 3.2 g/a
Text: as §15
as §2, with “chickweed” for “chickweed,”, “Emulsifiable” for “The boxes were placed in a greenhouse at 25 to 30° C. to grow the plants. After 14 days, emulsifiable”, “soil surfaces” for “foliage”, “dilute” for “diluted”
as §3, §4

[26] = system: large crabgrass; assay: as above; conditions: dose 3.2 g/a
Text: as §15
as §2, with “chickweed” for “chickweed,”, “Emulsifiable” for “The boxes were placed in a greenhouse at 25 to 30° C. to grow the plants. After 14 days, emulsifiable”, “soil surfaces” for “foliage”, “dilute” for “diluted”
as §3, §4

[27] = system: giant foxtail; assay: as above; conditions: dose 3.2 g/a
Text: as §15
as §2, with “chickweed” for “chickweed,”, “Emulsifiable” for “The boxes were placed in a greenhouse at 25 to 30° C. to grow the plants. After 14 days, emulsifiable”, “soil surfaces” for “foliage”, “dilute” for “diluted”
as §3, §4

[28] = system: transplanted rice; assay: Test Example 1: preemergence treatment under submerged conditions, effect on crop; conditions: dose 2.52 g/a
Text: as §7, §8, §9, §10, §11, §12, §13, §14, §3, §4

Structure (SMILES): CCOC(=O)N(c1ccccc1CN1COC(C)C(C)C1=O)S(=O)(=O)C(F)(F)F (stereo not shown) [II-71]
- L: common lambsquater, herbicidal effect [1]: 0 (mortality of less than 5% (almost ineffective))
- H: Italian ryegrass, herbicidal effect [2]: 1 (mortality of at least 5% and less than 20%)
- A: barnyardgrass, herbicidal effect [3]: 5 (mortality of 90% or above (nearly complete death))
- N: common chickweed, herbicidal effect [4]: 4 (mortality of at least 70% and less than 90%)
- K: redroot pigweed, herbicidal effect [5]: 0 (mortality of less than 5% (almost ineffective))
- M: posumbu knotweed, herbicidal effect [6]: 0 (mortality of less than 5% (almost ineffective))
- J: common ragweed, herbicidal effect [7]: 3 (mortality of at least 40% and less than 70%)
- G: water foxtail, herbicidal effect [8]: 5 (mortality of 90% or above (nearly complete death))
- D: large crabgrass, herbicidal effect [9]: 4 (mortality of at least 70% and less than 90%)
- E: giant foxtail, herbicidal effect [10]: 4 (mortality of at least 70% and less than 90%)
- I: velvetleaf, herbicidal effect [11]: 5 (mortality of 90% or above (nearly complete death))
- C: ducksalad, herbicidal effect (evaluation scale 0-5) [12]: 5 (mortality of 90% or above (nearly complete death))
- B: bulrush, herbicidal effect (evaluation scale 0-5) [13]: 5 (mortality of 90% or above (nearly complete death))
- A: barnyardgrass, herbicidal effect (evaluation scale 0-5) [14]: 5 (mortality of 90% or above (nearly complete death))
- C: ducksalad, herbicidal effect (evaluation scale 0-5) [15]: 5 (mortality of 90% or above (nearly complete death))
- B: bulrush, herbicidal effect (evaluation scale 0-5) [16]: 5 (mortality of 90% or above (nearly complete death))
- A: barnyardgrass, herbicidal effect (evaluation scale 0-5) [17]: 5 (mortality of 90% or above (nearly complete death))
- L: common lambsquater, herbicidal effect (evaluation scale 0-5) [18]: 0 (mortality of less than 5% (almost ineffective))
- H: Italian ryegrass, herbicidal effect (evaluation scale 0-5) [19]: 2 (mortality of at least 20% and less than 40%)
- A: barnyardgrass, herbicidal effect (evaluation scale 0-5) [20]: 5 (mortality of 90% or above (nearly complete death))
- N: common chickweed, herbicidal effect (evaluation scale 0-5) [21]: 3 (mortality of at least 40% and less than 70%)
- K: redroot pigweed, herbicidal effect (evaluation scale 0-5) [22]: 5 (mortality of 90% or above (nearly complete death))
- M: posumbu knotweed, herbicidal effect (evaluation scale 0-5) [23]: 3 (mortality of at least 40% and less than 70%)
- J: common ragweed, herbicidal effect (evaluation scale 0-5) [24]: 5 (mortality of 90% or above (nearly complete death))
- G: water foxtail, herbicidal effect (evaluation scale 0-5) [25]: 5 (mortality of 90% or above (nearly complete death))
- D: large crabgrass, herbicidal effect (evaluation scale 0-5) [26]: 5 (mortality of 90% or above (nearly complete death))
- E: giant foxtail, herbicidal effect (evaluation scale 0-5) [27]: 4 (mortality of at least 70% and less than 90%)
- a: transplanted rice, effect on crop (evaluation scale 0-5) [28]: 0 (mortality of less than 5% (almost ineffective))
